Test results reported in patent US20230286970A1, “NOVEL OXADIAZOLE-BASED SELECTIVE HDAC6 INHIBITORS” (ITALFARMACO S.P.A., priority 2020, published 2023).

Columns and labels:
[1] = molecular target: recombinant human HDAC6 (Homo sapiens (Human), UniProt Q9UBN7); experiment: Enzymatic screening, HDAC6 inhibition (fluorogenic FdL_G substrate); type: biochemical
Method in brief: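 Enzyme was preincubated with compound (8 doses, triplicate, 1% DMSO) in 25 mM Tris-HCl pH 8, 130 mM NaCl, 0.05% Tween-20, 10% glycerol, with BSA. A FLUOR DE LYS-Green substrate was then added, and fluorescence was read after developer plus 2 μM TSA.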

[2] = molecular target: recombinant human HDAC1 (Homo sapiens (Human), UniProt Q13547); experiment: Enzymatic screening, HDAC1 inhibition (fluorogenic FdL_G substrate); type: biochemical
Method in brief: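 Recombinant human HDAC1 inhibition was measured fluorometrically using the FLUOR DE LYS-Green (FdL_G) substrate. Compounds at 8 doses (1% DMSO final) in Tris-HCl pH 8 buffer with NaCl, Tween-20 and glycerol were preincubated in triplicate with enzyme and 1 mg/mL BSA, then given substrate. Developer I plus 2 μM TSA was added, and fluorescence read after 25 minutes in the dark.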

recombinant human HDAC1, sequence (Q13547 whole entry): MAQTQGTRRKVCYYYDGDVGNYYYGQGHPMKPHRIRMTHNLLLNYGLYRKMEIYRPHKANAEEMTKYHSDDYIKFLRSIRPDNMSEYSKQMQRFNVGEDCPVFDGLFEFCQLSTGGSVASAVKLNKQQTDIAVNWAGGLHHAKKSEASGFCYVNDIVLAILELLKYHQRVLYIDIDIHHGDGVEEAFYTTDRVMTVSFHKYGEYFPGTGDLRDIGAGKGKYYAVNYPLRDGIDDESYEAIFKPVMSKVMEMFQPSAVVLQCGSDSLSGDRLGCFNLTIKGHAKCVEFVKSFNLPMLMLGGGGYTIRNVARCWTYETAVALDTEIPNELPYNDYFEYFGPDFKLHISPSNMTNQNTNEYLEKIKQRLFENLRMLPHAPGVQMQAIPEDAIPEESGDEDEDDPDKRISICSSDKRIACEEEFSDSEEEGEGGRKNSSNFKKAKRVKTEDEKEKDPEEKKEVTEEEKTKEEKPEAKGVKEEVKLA
recombinant human HDAC6, sequence (Q9UBN7 whole entry): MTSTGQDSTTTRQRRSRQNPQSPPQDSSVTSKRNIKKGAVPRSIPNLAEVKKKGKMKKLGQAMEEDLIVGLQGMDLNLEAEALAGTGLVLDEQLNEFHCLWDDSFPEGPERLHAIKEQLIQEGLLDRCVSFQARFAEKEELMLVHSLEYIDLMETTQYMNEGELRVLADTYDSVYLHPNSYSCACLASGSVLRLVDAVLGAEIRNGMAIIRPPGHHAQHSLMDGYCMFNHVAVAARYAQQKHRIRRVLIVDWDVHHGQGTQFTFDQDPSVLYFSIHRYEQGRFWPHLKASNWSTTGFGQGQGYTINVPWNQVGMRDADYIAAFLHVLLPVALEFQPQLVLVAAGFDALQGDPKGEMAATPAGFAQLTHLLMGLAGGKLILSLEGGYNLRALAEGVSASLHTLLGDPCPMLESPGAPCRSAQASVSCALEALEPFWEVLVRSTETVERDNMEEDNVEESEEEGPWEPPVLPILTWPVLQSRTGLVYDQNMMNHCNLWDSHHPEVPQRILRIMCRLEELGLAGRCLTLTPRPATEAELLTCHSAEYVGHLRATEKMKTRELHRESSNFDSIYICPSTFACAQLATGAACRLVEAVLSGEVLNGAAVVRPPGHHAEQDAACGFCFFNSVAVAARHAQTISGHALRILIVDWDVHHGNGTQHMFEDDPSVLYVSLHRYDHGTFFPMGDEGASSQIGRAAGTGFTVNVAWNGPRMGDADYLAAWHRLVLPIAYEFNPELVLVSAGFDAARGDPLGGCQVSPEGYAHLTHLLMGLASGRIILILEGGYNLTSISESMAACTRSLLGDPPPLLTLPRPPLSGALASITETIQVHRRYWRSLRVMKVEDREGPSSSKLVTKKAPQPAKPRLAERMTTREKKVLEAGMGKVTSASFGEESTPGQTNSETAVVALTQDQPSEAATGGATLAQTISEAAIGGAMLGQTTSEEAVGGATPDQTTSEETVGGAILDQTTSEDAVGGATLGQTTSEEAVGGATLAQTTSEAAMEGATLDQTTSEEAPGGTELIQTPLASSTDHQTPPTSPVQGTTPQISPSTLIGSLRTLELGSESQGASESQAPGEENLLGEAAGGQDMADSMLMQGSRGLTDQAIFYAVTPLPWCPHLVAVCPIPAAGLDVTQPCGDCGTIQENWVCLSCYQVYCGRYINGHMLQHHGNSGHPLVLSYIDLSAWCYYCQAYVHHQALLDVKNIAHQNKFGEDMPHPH

CNc1ccc2cc(-c3nnn(Cc4c(F)cc(-c5nnc(C(F)F)o5)cc4F)n3)ccc2n1 [compound 388, 6-(2-(4-(5-(difluoromethyl)-1,3,4-oxadiazol-2-yl)-2,6-difluorobenzyl)-2H-tetrazol-5-yl)-N-methylquinolin-2-amine]
IC50 [1]: 0.125 µM | IC50 [2]: 1000 µM

CS(=O)(=O)NCC[C@@H](c1ccc(-c2nnc(C(F)F)o2)cc1)n1cc(-c2ccc(N)nc2)nn1 [compound 310, N-[(3S)-3-[4-(6-aminopyridin-3-yl)triazol-1-yl]-3-[4-[5-(difluoromethyl)-1,3,4-oxadiazol-2-yl]phenyl]propyl]methanesulfonamide]
IC50 [1]: 0.138 µM | IC50 [2]: > 1000 µM

FC(F)c1nnc(-c2ccc(Cn3nnc(-c4ccc5cnccc5c4)n3)c(Cl)c2)o1 [compound 426, 2-(3-chloro-4-((5-(isoquinolin-6-yl)-2H-tetrazol-2-yl)methyl)phenyl)-5-(difluoromethyl)-1,3,4-oxadiazole]
IC50 [1]: 0.345 µM | IC50 [2]: 1000 µM

CCNc1cccc(-c2cn(Cc3c(F)cc(-c4nnc(C(F)F)o4)cc3F)nn2)c1 [compound 114, 3-(1-(4-(5-(difluoromethyl)-1,3,4-oxadiazol-2-yl)-2,6-difluorobenzyl)-1H-1,2,3-triazol-4-yl)-N-ethylaniline]
IC50 [1]: 0.043 µM | IC50 [2]: > 200 µM

Nc1ncc2cc(-c3nnn(Cc4cc(F)c(-c5nnc(C(F)F)o5)cc4F)n3)ccc2n1 [compound 423, 6-(2-(4-(5-(difluoromethyl)-1,3,4-oxadiazol-2-yl)-2,5-difluorobenzyl)-2H-tetrazol-5-yl)quinazolin-2-amine]
IC50 [1]: 0.099 µM | IC50 [2]: 1000 µM

CN1CCN(c2cccc(-c3nnn(Cc4ccc(-c5nnc(C(F)F)o5)cc4)n3)c2)CC1 [compound 58, 2-(difluoromethyl)-5-(4-((5-(3-(4-methylpiperazin-1-yl)phenyl)-2H-tetrazol-2-yl)methyl)phenyl)-1,3,4-oxadiazole]
IC50 [1]: 0.025 µM | IC50 [2]: > 200 µM

CC1(C)NC(=O)c2cc(-c3cn(Cc4ccc(-c5nnc(C(F)F)o5)cc4)nn3)ccc21 [compound 245, 6-(1-(4-(5-(difluoromethyl)-1,3,4-oxadiazol-2-yl)benzyl)-1H-1,2,3-triazol-4-yl)-3,3-dimethylisoindolin-1-one]
IC50 [1]: 0.264 µM | IC50 [2]: > 200 µM

Nc1ccc(-c2noc(C(F)(F)c3ccc(-c4nnc(C(F)F)o4)cc3)n2)cn1 [Compd. 243, 5-(5-((4-(5-(difluoromethyl)-1,3,4-oxadiazol-2-yl)phenyl)difluoromethyl)-1,2,4-oxadiazol-3-yl)pyridin-2-amine]
IC50 [1]: 0.234 µM | IC50 [2]: > 200 µM

Nc1ccc(-c2cn(C(CCNC(=O)C(F)F)c3ccc(-c4nnc(C(F)F)o4)cn3)nn2)cn1 (centres unmarked) [compd. 295, N-(3-(4-(6-aminopyridin-3-yl)-1H-1,2,3-triazol-1-yl)-3-(5-(5-(difluoromethyl)-1,3,4-oxadiazol-2-yl)pyridin-2-yl)propyl)-2,2-difluoroacetamide]
IC50 [1]: 0.032 µM | IC50 [2]: > 200 µM

Nc1ccc(-c2nnnn2Cc2ncc(-c3nnc(C(F)F)o3)cn2)cn1 [compound 290, 5-(1-((5-(5-(difluoromethyl)-1,3,4-oxadiazol-2-yl)pyrimidin-2-yl)methyl)-1H-tetrazol-5-yl)pyridin-2-amine]
IC50 [1]: 0.068 µM | IC50 [2]: > 200 µM

CN(C)c1ccc(-c2cn(Cc3ccc(-c4nnc(C(F)F)o4)cc3)nn2)cc1 [compound 281, 4-(1-(4-(5-(difluoromethyl)-1,3,4-oxadiazol-2-yl)benzyl)-1H-1,2,3-triazol-4-yl)-N,N-dimethylaniline]
IC50 [1]: 0.2 µM | IC50 [2]: > 200 µM

CN1CCN(c2ccc(-c3nnn(Cc4ccc(-c5nnc(C(F)F)o5)cc4)n3)cn2)CC1 [compound 212, 2-(difluoromethyl)-5-(4-((5-(6-(4-methylpiperazin-1-yl)pyridin-3-yl)-2H-tetrazol-2-yl)methyl)phenyl)-1,3,4-oxadiazole]
IC50 [1]: 0.147 µM | IC50 [2]: > 200 µM

Cn1c(N)nc2cc(-c3nnn(Cc4cc(F)c(-c5nnc(C(F)F)o5)cc4F)n3)ccc21 [compound 372, 5-[2-[[4-[5-(difluoromethyl)-1,3,4-oxadiazol-2-yl]-2,5-difluorophenyl]methyl]tetrazol-5-yl]-1-methylbenzimidazol-2-amine]
IC50 [1]: 0.019 µM | IC50 [2]: > 1000 µM

Cn1c(N)nc2cc(-c3nnn(Cc4ncc(-c5nnc(C(F)F)o5)cc4F)n3)ccc21 [compound 370, 5-[2-[[5-[5-(difluoromethyl)-1,3,4-oxadiazol-2-yl]-3-fluoropyridin-2-yl]methyl]tetrazol-5-yl]-1-methylbenzimidazol-2-amine]
IC50 [1]: 0.023 µM | IC50 [2]: > 1000 µM

Nc1nc2cc(-c3nnn(Cc4ccc(-c5nnc(C(F)F)o5)cc4)n3)ccc2o1 [compound 152, 5-(2-(4-(5-(difluoromethyl)-1,3,4-oxadiazol-2-yl)benzyl)-2H-tetrazol-5-yl)benzo[d]oxazol-2-amine]
IC50 [1]: 0.065 µM | IC50 [2]: > 200 µM

Nc1nc2ccc(-c3cn(Cc4cc(F)c(-c5nnc(C(F)F)o5)cc4F)nn3)cc2s1 [compound 343, 6-[1-[[4-[5-(difluoromethyl)-1,3,4-oxadiazol-2-yl]-2,5-difluorophenyl]methyl]triazol-4-yl]-1,3-benzothiazol-2-amine]
IC50 [1]: 0.031 µM | IC50 [2]: > 1000 µM

Nc1ccc(-n2cc(Cc3ccc(-c4nnc(C(F)F)o4)cc3)nn2)cc1 [compound 315, 4-[4-[[4-[5-(difluoromethyl)-1,3,4-oxadiazol-2-yl]phenyl]methyl]triazol-1-yl]aniline]
IC50 [1]: 0.668 µM | IC50 [2]: > 1000 µM

FC(F)c1nnc(-c2ccc(Cc3nc(-c4ccc(NC5=NCCN5)cc4)no3)cc2)o1 [compound 379, N-[4-[5-[[4-[5-(difluoromethyl)-1,3,4-oxadiazol-2-yl]phenyl]methyl]-1,2,4-oxadiazol-3-yl]phenyl]-4,5-dihydro-1H-imidazol-2-amine]
IC50 [1]: 0.017 µM | IC50 [2]: > 1000 µM

Fc1cc(Cc2nc(-c3ccc(NC4=NCCN4)cc3)no2)ccc1-c1nnc(C(F)F)o1 [compound 383, N-(4-(5-(4-(5-(difluoromethyl)-1,3,4-oxadiazol-2-yl)-3-fluorobenzyl)-1,2,4-oxadiazol-3-yl)phenyl)-4,5-dihydro-1H-imidazol-2-amine]
IC50 [1]: 0.013 µM | IC50 [2]: > 1000 µM

Nc1ccc(-c2cn(C(COc3ccccc3)c3ccc(-c4nnc(C(F)F)o4)cc3)nn2)cn1 (centres unmarked) [compound 236, 5-(1-(1-(4-(5-(difluoromethyl)-1,3,4-oxadiazol-2-yl)phenyl)-2-phenoxyethyl)-1H-1,2,3-triazol-4-yl)pyridin-2-amine]
IC50 [1]: 0.206 µM | IC50 [2]: > 200 µM

COc1ncc(NCc2ccc(-c3cn(Cc4c(F)cc(-c5nnc(C(F)F)o5)cc4F)nn3)cc2)cc1C(N)=O [Compd. 154, 5-((4-(1-(4-(5-(difluoromethyl)-1,3,4-oxadiazol-2-yl)-2,6-difluorobenzyl)-1H-1,2,3-triazol-4-yl)benzyl)amino)-2-methoxynicotinamide]
IC50 [1]: 0.067 µM | IC50 [2]: > 200 µM

[2H]C([2H])(c1ccc(-c2nnc(C(F)F)o2)cc1F)n1cc(-c2ccc3nc(N)sc3c2)nn1 [compound 382, 6-[1-[dideuterio-[4-[5-(difluoromethyl)-1,3,4-oxadiazol-2-yl]-2-fluorophenyl]methyl]triazol-4-yl]-1,3-benzothiazol-2-amine]
IC50 [1]: 0.018 µM | IC50 [2]: > 1000 µM
